In ChEMBL document CHEMBL1201862, “PubChem BioAssay data set” (2004):
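Tested at 5 concentrations; 48 h exposure; 96-well plates; endpoints linearly interpolated, else capped at highest concentration. GI50 = concentration required for 50% inhibition of growth.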 The source made the active and inactive calls. Rule as the data show it: active = GI50 up to about 1.1 µM and inactive = higher.

Experiments:
Experiment in all cases: NCI-60 cell line screen, 48 h
SF-268 = system: SF-268
HCC 2998 = system: HCC 2998
NCI-H226 = system: NCI-H226
SK-MEL-5 = system: SK-MEL-5
CCRF-CEM = system: CCRF-CEM
HOP-62 = system: HOP-62
OVCAR-5 = system: OVCAR-5
SK-OV-3 = system: SK-OV-3
RXF 393 = system: RXF 393
HOP-92 = system: HOP-92
ACHN = system: ACHN
SR = system: SR
HT-29 = system: HT-29
HCT-15 = system: HCT-15
T47D = system: T47D
K562 = system: K562
MDA-MB-435 = system: MDA-MB-435
A549 = system: A549
CAKI-1 = system: CAKI-1
RPMI-8226 = system: RPMI-8226

Row | Compound | GI50 (SF-268) | GI50 (HCC 2998) | GI50 (NCI-H226) | GI50 (SK-MEL-5) | GI50 (CCRF-CEM) | GI50 (HOP-62) | GI50 (OVCAR-5) | GI50 (SK-OV-3) | GI50 (RXF 393) | GI50 (HOP-92) | GI50 (ACHN) | GI50 (SR) | GI50 (HT-29) | GI50 (HCT-15) [µM] | GI50 (T47D) | GI50 (K562) | GI50 (MDA-MB-435) | GI50 (A549) | GI50 (CAKI-1) | GI50 (RPMI-8226)
1 | CC(C)OC(=O)c1ccc(NCC2=CC(=O)C=CC2=O)cc1Cl | 12.1 µM (inactive) | 15.2 µM (inactive) | 25.7 µM (inactive) | 18.7 µM (inactive) | 0.448 µM (active) | 32.5 µM (inactive) | 22.2 µM (inactive) | 31.4 µM (inactive) | 17.1 µM (inactive) | 4.89 µM (inactive) | 4.36 µM (inactive) | 1.58 µM (inactive) | 16.3 µM (inactive) | 4.4 | 2.3 µM (inactive) | 2.73 µM (inactive) | 9.44 µM (inactive) | 31.9 µM (inactive) | 2.19 µM (inactive) | –
2 | Fc1cccc2nc(-c3ccccc3)cc(OCc3ccccc3)c12 | > 100 µM (inactive) | > 100 µM (inactive) | > 100 µM (inactive) | 28.4 µM (inactive) | > 100 µM (inactive) | > 100 µM (inactive) | > 100 µM (inactive) | > 100 µM (inactive) | 69.5 µM (inactive) | – | > 100 µM (inactive) | > 100 µM (inactive) | > 100 µM (inactive) | > 100 | 89.3 µM (inactive) | > 100 µM (inactive) | > 100 µM (inactive) | 83.4 µM (inactive) | – | > 100 µM (inactive)
3 | O=C(/C=C/c1cccc([N+](=O)[O-])c1)N1CCN(CCOC(c2ccccc2)c2ccccc2)CC1 | – | 23.7 µM (inactive) | – | 14.9 µM (inactive) | 28.4 µM (inactive) | > 100 µM (inactive) | > 100 µM (inactive) | > 100 µM (inactive) | 34.4 µM (inactive) | 16.6 µM (inactive) | 34.5 µM (inactive) | 16.1 µM (inactive) | 19.2 µM (inactive) | 31.1 | 17.9 µM (inactive) | 19.4 µM (inactive) | 33.4 µM (inactive) | 45.7 µM (inactive) | > 100 µM (inactive) | 12.3 µM (inactive)
4 | COc1cc(-c2cc(=O)c3c(O)c(OC)c(OC)c(OC)c3o2)cc(OC)c1OC [GARDENIN] | 8.71 µM (inactive) | 22.5 µM (inactive) | 13.7 µM (inactive) | 11 µM (inactive) | > 100 µM (inactive) | 3.43 µM (inactive) | > 68.9 µM (inactive) | 5.45 µM (inactive) | 8.83 µM (inactive) | 4.04 µM (inactive) | 3.33 µM (inactive) | > 100 µM (inactive) | > 100 µM (inactive) | > 100 | 10.2 µM (inactive) | > 100 µM (inactive) | > 100 µM (inactive) | 7.18 µM (inactive) | – | > 44.7 µM (inactive)
5 | COC(CN(C)C(=S)Nc1cccc2ccccc12)OC | > 10 µM (inactive) | > 10 µM (inactive) | > 10 µM (inactive) | > 10 µM (inactive) | > 10 µM (inactive) | > 10 µM (inactive) | – | > 10 µM (inactive) | > 10 µM (inactive) | – | > 10 µM (inactive) | > 10 µM (inactive) | > 10 µM (inactive) | > 10 | > 10 µM (inactive) | > 10 µM (inactive) | > 10 µM (inactive) | > 10 µM (inactive) | > 10 µM (inactive) | > 10 µM (inactive)
6 | CC1(C)CC(=O)c2c(nc3c(ccc4ccccc43)c2-c2ccc(NC(=O)CCC(=O)Nc3ccc(-c4c5c(nc6c4ccc4ccccc46)CC(C)(C)CC5=O)cc3)cc2)C1 | > 100 µM (inactive) | – | > 100 µM (inactive) | > 100 µM (inactive) | > 100 µM (inactive) | > 100 µM (inactive) | > 100 µM (inactive) | > 100 µM (inactive) | > 100 µM (inactive) | > 100 µM (inactive) | > 100 µM (inactive) | > 100 µM (inactive) | > 100 µM (inactive) | > 100 | > 100 µM (inactive) | > 100 µM (inactive) | > 100 µM (inactive) | > 100 µM (inactive) | > 100 µM (inactive) | > 100 µM (inactive)
